Data on three compounds can be found in patent EP0162568A2, “Paulomycin analogues and their preparation” (THE UPJOHN COMPANY, priority 1984, dated 1985).

Where two headings read alike, the source gives them in different places.

Data set [1] can be described thus: solubility (characterization). The format is physicochemical.
The subject of another data set is Gram-positive organisms. Kind of data set: antibacterial activity, general statement. The format is cell-based. The settings on record: including organisms resistant to penicillins, macrolides and lincosaminides.
The conditions of data set [2]: in water; background statement; cited from earlier work.
Setting [3] is: free acid form, in phosphate buffers at physiological pH (7.0-7.5).
[4] abbreviates: in chloroform, methylene chloride.
Where [5] appears, read: in ether and saturated hydrocarbon solvents.
[6] abbreviates: in lower alcohols, ketones, ethyl acetate.

Turning to `CC=C(NC(=S)SCC(NC(C)=O)C(=O)O)C(=O)OC1C(COC(C)=O)OC(C2(O)CC(=O)C(O)=C(C(N)=O)C2=O)C(O)C1OC1CC(OC)C(O)(C(C)OC(=O)C(C)CC)C(C)O1` (stereo not drawn) [Antibiotic 273a2α], the Solubility entry is recorded as “soluble” in data set [1] (setting [3]); “insoluble” in data set [1] (free acid form, in water); “less soluble” in data set [1] (setting [4]); “insoluble” in data set [1] (setting [5]); “Soluble” in data set [1] (setting [6]); “soluble” in data set [1] (salts, in water). Moreover, the “activity against Gram-positive organisms” value with Gram-positive organisms is reported as “active”.

Take `CC=C(NC(=S)SCC(NC(C)=O)C(=O)O)C(=O)OC1C(COC(C)=O)OC(C2(O)CC(=O)C(O)=C(C(N)=O)C2=O)C(O)C1OC1CC(OC)C(O)(C(C)OC(=O)C(C)C)C(C)O1` (stereo not drawn) [Antibiotic 273a2β]: the Solubility entry in data set [1] (setting [3]) is recorded as “soluble”; in data set [1] (free acid form, in water) it was “insoluble”; in data set [1] (setting [4]), “less soluble”; in data set [1] (setting [5]), “insoluble”; in data set [1] (setting [6]), “Soluble”; in data set [1] (salts, in water) it was “soluble”. Further, in the data set on Gram-positive organisms, the “activity against Gram-positive organisms” value is “active”.

Take paulomycin: the Solubility result in data set [2] was “relatively insoluble”.
